According to patent publication US11512053B2, “Arginine methyltransferase inhibitors and uses thereof” (priority 2013, dated 2022):
Where a name gives a salt, the structure may show the parent alone. Read-outs that look alike come from different tables or passages of the source.

Experiments:
[1] = target: full-length human PRMT8 isoform 1 (Homo sapiens, UniProt Q9NR22); assay: PRMT8 Biochemical Assay (3H-SAM Flashplate, peptide substrate)
In short: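 Full-length human PRMT8 (1.5 nM, E. coli-expressed, GST removed) preincubated 30 min at room temperature with compound, then reacted with 50 nM 3H-SAM plus 550 nM cold SAM and 150 nM biotinylated H4 31-45 peptide in 20 mM Bicine pH 7.6, 1 mM TCEP, 0.005% BSG, 0.002% Tween 20, 2% DMSO. Quenched with 400 uM cold SAM; labelled peptide captured on streptavidin Flashplate, % inhibition versus 1 mM SAH and DMSO controls fitted to 4- or 3-parameter curve.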

[2] = target: full-length human PRMT1 isoform 1 (GST-tagged) (Homo sapiens, UniProt Q99873); assay: PRMT1 Biochemical Assay (3H-SAM Flashplate, peptide substrate)
Chain of full-length human PRMT1 isoform 1 (GST-tagged) (Q99873 with tags, fused parts or gaps): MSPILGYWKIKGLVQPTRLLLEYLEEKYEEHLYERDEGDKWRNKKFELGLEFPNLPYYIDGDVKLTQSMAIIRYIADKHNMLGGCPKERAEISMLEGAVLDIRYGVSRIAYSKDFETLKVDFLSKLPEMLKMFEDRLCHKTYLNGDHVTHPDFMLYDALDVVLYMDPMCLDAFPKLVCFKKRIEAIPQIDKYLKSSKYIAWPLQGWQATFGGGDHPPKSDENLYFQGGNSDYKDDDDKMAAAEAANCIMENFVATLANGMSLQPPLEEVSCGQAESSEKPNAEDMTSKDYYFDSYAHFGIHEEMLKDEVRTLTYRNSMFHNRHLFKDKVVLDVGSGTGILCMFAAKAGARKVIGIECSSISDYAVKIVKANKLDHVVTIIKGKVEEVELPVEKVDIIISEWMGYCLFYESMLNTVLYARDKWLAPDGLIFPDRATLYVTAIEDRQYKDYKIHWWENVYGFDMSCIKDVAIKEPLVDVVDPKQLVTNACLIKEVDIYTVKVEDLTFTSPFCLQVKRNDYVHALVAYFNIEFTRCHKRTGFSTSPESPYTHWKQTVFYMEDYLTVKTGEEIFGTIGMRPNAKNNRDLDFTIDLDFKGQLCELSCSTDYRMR
In short: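 GST-tagged full-length PRMT1 from baculovirus-infected cells, preincubated 30 min at room temperature with compound in 20 mM Bicine pH 7.6, TCEP, BSG, Tween 20. Reaction started with 3H-SAM plus biotinylated peptide, stopped with 300 uM unlabelled SAM. Streptavidin Flashplate capture and scintillation counting; % inhibition curve-fitted for IC50.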

[3] = read-out: Biochemical IC50 PRMT8
[4] = single experiment or average of multiple experiments, read-out: Biochemical IC50 PRMT8
[5] = single experiment or average of multiple experiments
[6] = Biochemical IC50 PRMT8, single experiment or average of multiple experiments

Chain of full-length human PRMT8 isoform 1 (Q9NR22 whole entry, canonical isoform): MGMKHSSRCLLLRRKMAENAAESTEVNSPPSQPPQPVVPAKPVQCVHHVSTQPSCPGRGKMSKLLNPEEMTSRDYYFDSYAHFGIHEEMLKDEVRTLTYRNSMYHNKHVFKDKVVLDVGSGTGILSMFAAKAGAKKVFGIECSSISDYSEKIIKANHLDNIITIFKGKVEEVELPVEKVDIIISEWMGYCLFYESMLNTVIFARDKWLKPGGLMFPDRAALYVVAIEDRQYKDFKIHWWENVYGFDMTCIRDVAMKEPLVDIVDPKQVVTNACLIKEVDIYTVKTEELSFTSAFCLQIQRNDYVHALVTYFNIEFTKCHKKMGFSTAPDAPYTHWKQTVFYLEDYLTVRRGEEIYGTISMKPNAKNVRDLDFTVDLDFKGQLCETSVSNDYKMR

| Compound | IC50 [1, 3] [nM] | IC50 [1, 4] [nM] | IC50 [2] [nM] | IC50 [2, 5] [nM] | IC50 ([1]; Biochemical IC50 PRMT8) [nM] | IC50 [1, 6] [nM] |
| --- | --- | --- | --- | --- | --- | --- |
| CNCCN(C)Cc1c[nH]nc1C1CCC(C)(C)[C@H](OCCCOC)C1 (stereo partly drawn) [Compound 272] | < 100 | 25.8 | < 100 | 12.4 |  |  |
| COc1cccc(/C=C/c2n[nH]cc2CN(C)CCN)c1 [Compound 17] |  | 410 |  | 10 |  |  |
| CN(CCN)Cc1c[nH]nc1C1CCCC1 [Compound 31] |  | 1150 |  | 110 |  |  |
| CNCCN(C)Cc1c[nH]nc1C1CCN(C(=O)Cc2ccccc2)CC1 [Compound 32] |  | 770 |  | 20 |  |  |
| CNCCN(C)Cc1c[nH]nc1C#Cc1ccc(C(C)(C)C)cc1 [Compound 2] |  | 170 |  | 10 |  |  |
| CNCCN(C)Cc1c[nH]nc1C1CCC2(CCC(C)(C)CC2)OC1 (stereo not drawn) [Compound 65] | < 100 | 13.6 | < 100 | 9.65 |  |  |
| CNCCN(C)Cc1c[nH]nc1[C@@H]1CCC(C)(C)[C@@H](C(=O)NCCCOC)C1 [Compound 271, (1S,5R)—N-(3-methoxypropyl)-2,2-dimethyl-5-[4-({methyl[2-(methylamino)ethyl]amino}methyl)-1H-pyrazol-3-yl]cyclohexane-1-carboxamide] | < 100 | 100 | < 100 | 37.1 |  |  |
| CNCCN(C)Cc1cnn(C)c1C1CCC2(CCCC2)CC1 [Compound 49] |  | 7.3 | < 100 | 4.3 |  |  |
| CC1CCC(c2c[nH]nc2CN(C)CCN)CC1 (stereo not drawn) [Compound 35] |  | 140 |  |  |  |  |
| CCCc1n[nH]cc1CN(C)CCN [Compound 29] |  | 3810 |  |  |  |  |
| CNCCN(C)Cc1c[nH]nc1C1CCC(OCCOC)CC1 (stereo not drawn) [Compound 58] |  | 72.1 | < 100 | 26.5 |  |  |
| CNCCN(C)Cc1c[nH]nc1C1CCN(C(=O)CC(C)C)CC1 [Compound 40, 3-methyl-1-(4-(4-((methyl(2-(methylamino)ethyl)amino)methyl)-1H-pyrazol-3-yl)piperidin-1-yl)butan-1-one] |  | 7010 |  | 20 |  |  |
| CN(CCN)Cc1c[nH]nc1/C=C/c1cc(C(F)(F)F)cc(C(F)(F)F)c1 [Compound 14] |  | 660 |  | 90 |  |  |
| CCOCC1CC(c2n[nH]cc2CN(C)CCNC)CC(COCC)C1(C)C (stereo not drawn) [Compound 87] | 1010 to 3000 | 1010 | 101 to 1000 | 564 |  |  |
| CC1CCC(c2n[nH]cc2CN(C)CCN)CC1 (stereo not drawn) [Compound 37, N^1-methyl-N^1-((3-(4-methylcyclohexyl)-1H-pyrazol-4-yl)methyl)ethane-1,2-diamine] |  | 130 |  | 10 |  |  |
| CNCCN(C)Cc1c[nH]nc1C1CCC(C)(C)[C@H](OCC2CCOCC2)C1 (stereo partly drawn) [Compound 273, ({3-[(3R)-4,4-dimethyl-3-(oxan-4-ylmethoxy)cyclohexyl]-1H-pyrazol-4-yl}methyl)(methyl)[2-(methylamino)ethyl]amine] | < 100 | 22.6 | < 100 | 11.4 |  |  |
| CNCCN(C)Cc1c[nH]nc1C1CCN(C)CC1 [Compound 41] |  | 350 |  | 10 |  |  |
| Cc1ccc(/C=C/c2n[nH]cc2CN(C)CCN)cc1 [Compound 8] |  | 360 |  | 20 |  |  |
| CN(CCN)Cc1c[nH]nc1/C=C/c1ccc(F)cc1F [Compound 13] |  | 300 |  | 10 |  |  |
| CNCCN(C)Cc1c[nH]nc1C1CCC2(CC1)CC(C)OC(C)C2 (stereo not drawn) [Compound 63] | < 100 | 12 | < 100 | 9 |  |  |
| CN(CCN)Cc1c[nH]nc1C1CCCCC1 [Compound 22] |  | 300 |  | 10 |  |  |
| CN(CCN)Cc1c[nH]nc1C1CCC(C)(C)CC1 [Compound 38, N^1-((3-(4,4-dimethylcyclohexyl)-1H-pyrazol-4-yl)methyl)-N^1-methylethane-1,2-diamine] |  | 260 |  |  |  |  |

| Compound | IC50 [1, 3] [nM] | IC50 [1, 4] [nM] | IC50 [2] [nM] | IC50 [2, 5] [nM] | IC50 ([1]; Biochemical IC50 PRMT8) [nM] | IC50 [1, 6] [nM] |
| --- | --- | --- | --- | --- | --- | --- |
| COC/C=C/c1n[nH]cc1CN(C)CCN [Compound 19] |  | 2300 |  | 190 |  |  |
| CNCCN(C)Cc1c[nH]nc1C1CCC(C)(C)C(C(=O)NCc2ccccc2)C1 (stereo not drawn) [Compound 92] | < 100 | 42.1 | < 100 | 20.9 |  |  |
| CNCCN(C)Cc1c[nH]nc1C1CCC(C)(C)C(C(=O)NCCC(C)C)C1 (stereo not drawn) [Compound 91] | < 100 | 29 | < 100 | 16.7 |  |  |
| CN(CCN)Cc1c[nH]nc1/C=C/c1cccc(F)c1 [Compound 20] |  | 470 |  | 20 |  |  |
| CNCCN(C)Cc1ccnn1C1CCC2(CCCC2)CC1 [Compound 275, Methyl[2-(methylamino)ethyl][(1-[spiro[4.5]decan-8-yl]-1H-pyrazol-5-yl)methyl]amine trifluoroacetate] | < 100 | 10.4 | < 100 | 4.62 |  |  |
| CNCCN(C)Cc1c[nH]nc1/C=C/c1ccc(C(F)(F)F)cc1 [Compound 6] |  | 240 |  | 40 |  |  |
| CNCCN(C)Cc1c[nH]nc1C#Cc1cccc(OC)c1 [Compound 1] |  | 390 |  | 10 |  |  |
| CNCCN(C)Cc1c[nH]nc1[C@@H]1CCC(C)(C)[C@@H](C(=O)NCCOC)C1 [Compound 269] | 101 to 1000 | 155 | < 100 | 51.3 |  |  |
| CN(CCN)Cc1c[nH]nc1C1=CCCC1 [Compound 25] |  | 2860 |  | 250 |  |  |
| CNCCN(C)Cc1c[nH]nc1C1CCC(COC)(COC)CC1 [Compound 57] |  | 30.1 | < 100 | 18.6 |  |  |
| CN(CCN)Cc1n[nH]cc1C1CCC(N2CCOCC2)CC1 (stereo not drawn) [Compound 44, N^1-methyl-N^1-((4-(4-morpholinocyclohexyl)-1H-pyrazol-3-yl)methyl)ethane-1,2-diamine] |  | 62.4 |  |  |  |  |
| CNCCN(C)Cc1c[nH]nc1C1CCC(COC)CC1 (stereo not drawn) [Compound 53] |  | 12.8 | < 100 | 10.5 |  |  |
| Cc1n[nH]cc1CN(C)CCN [Compound 30] |  | > 10000 |  |  |  |  |
| CN(CCN)Cc1c[nH]nc1/C=C/c1ccc(C(F)(F)F)cc1 [Compound 18] |  | 40 |  |  |  |  |
| CNCCN(C)Cc1c[nH]nc1[C@H]1CC[C@]2(CC1)CC(C)(C)CO2 [Compound 134, methyl[2-(methylamino)ethyl]([3-[(5r,8r)-3,3-dimethyl-1-oxaspiro[4.5]decan-8-yl]-1H-pyrazol-4-yl]methyl)amine] |  |  |  |  | < 100 | 24.8 |
| CNCCN(C)Cc1c[nH]nc1[C@H]1CC[C@@]2(CC1)CC(C)(C)CO2 [Compound 133, Methyl[2-(methylamino)ethyl]([3-[(5s,8s)-3,3-dimethyl-1-oxaspiro[4.5]decan-8-yl]-1H-pyrazol-4-yl]methyl)amine] |  |  |  |  | < 100 | 9.1 |
| CNCCN(C)Cc1c[nH]nc1C1CCNCC1 [Compound 42] |  | 30 |  |  |  |  |
| CN(CCN)Cc1c[nH]nc1C(C)(C)C [Compound 27] | > 10000 | > 10000 |  |  |  |  |
| CN(CCN)Cc1n[nH]cc1C1CCC(C)(C)CC1 [Compound 36] |  | 280 |  |  |  |  |
| CNCCN(C)Cc1c[nH]nc1C1CCN(CC(C)C)CC1 [Compound 39, N^1-((3-(1-isobutylpiperidin-4-yl)-1H-pyrazol-4-yl)methyl)-N^1,N^2-dimethylethane-1,2-diamine] |  | 360 |  |  |  |  |
| CN(CCN)Cc1c[nH]nc1C1CCC1 [Compound 26] |  | 5630 |  |  |  |  |
| CNCCN(C)Cc1c[nH]nc1C1CCC(COC(C)C)(COC(C)C)CC1 [Compound 61] |  |  | < 100 | 20.5 |  |  |
